Measurements taken from patent US20230391765A1, “HETEROBIFUNCTIONAL COMPOUNDS AS DEGRADERS OF ENL” (ICAHN SCHOOL OF MEDICINE AT MOUNT SINAI, priority 2020, published 2023).
One block for each compound: values may come before it.

Key:
Assay type in all cases: cell-based
ENL [1] = target: T1, ENL (Homo sapiens, UniProt Q03111); assay: Western blot of ENL protein levels in MV4; 11 cells; conditions: 11 cells; for effect of proteasome inhibitor MG132 on the ENL degradation induced by the degrader: 1 μM degrader with or without 1 μM MG132 for 6 h; for ENL protein level after long treatment: 1 μM for 48 and 72 h
T1 construct: Cells were lysed and expression of endogenous ENL was assessed by Western blot analysis; host or cells: MV4;11
T1 sequence (Q03111 1-559): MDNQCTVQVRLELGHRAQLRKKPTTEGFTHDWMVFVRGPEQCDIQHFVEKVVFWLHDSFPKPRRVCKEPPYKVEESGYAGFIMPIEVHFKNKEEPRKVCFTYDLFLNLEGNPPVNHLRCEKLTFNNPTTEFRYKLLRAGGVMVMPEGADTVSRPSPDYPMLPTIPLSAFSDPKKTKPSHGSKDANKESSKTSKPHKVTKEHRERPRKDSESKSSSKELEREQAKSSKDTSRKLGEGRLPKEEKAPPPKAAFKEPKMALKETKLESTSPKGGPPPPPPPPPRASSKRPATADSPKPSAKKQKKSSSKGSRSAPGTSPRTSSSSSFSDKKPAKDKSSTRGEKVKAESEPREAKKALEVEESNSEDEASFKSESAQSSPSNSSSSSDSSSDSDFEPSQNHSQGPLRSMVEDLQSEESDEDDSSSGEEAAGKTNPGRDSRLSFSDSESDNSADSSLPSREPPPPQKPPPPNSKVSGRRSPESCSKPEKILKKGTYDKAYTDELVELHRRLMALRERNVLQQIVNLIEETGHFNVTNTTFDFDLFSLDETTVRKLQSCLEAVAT
Procedure: MV4; 11 cells were treated with DMSO or the indicated compounds (the same panel of ENL degraders as shown in FIG. 4) at 1 μM and 10 μM for 24 h. Cells were lysed and expression of ENL was assessed by Western blot analysis.
DMSO treated cells were used as control.
MV4; 11 cells were treated with LQ076-122, or LQ081-107 at 0.3, 1, 3, 10, and 30 μM for 24 h. DMSO treated cells were used as control. Cells were lysed and expression of ENL and GAS41 was assessed by Western analysis.
MV4; 11 cells were treated with DMSO or the indicated compounds at 1 μM and 10 μM for 6 h. Cells were lysed and expression of endogenous ENL was assessed by Western blot analysis.
Cells were treated with 1 μM of ENL degrader with or without 1 μM proteasome inhibitor MG132 for 6 h.
(§1) ENL degraders were dissolved in DMSO. DMSO with no degraders was used as the control. 1×10^6 leukemia cells were seeded in 5 mL medium. For prescreening of compounds, each test compound was added to the medium at 1 μM and 10 μM. Cells were collected after 24 h treatment. For the concentration-dependent treatment, candidate compounds were added to the medium at a series of concentration as indicated in figures. Cells were collected after 24 h treatment. For the time-course treatment, candidate compounds were added to the medium at a final concentration of 4 μM (MV4; 11 cells) or 8 μM (MOLM13 cells). Cells were collected at the indicated timepoints (in hours: 12, 16, 20, 24 and 36 h).
(§2) After ENL degrader treatment, cells were collected, lysed, and total cell lysates were used for Western blot. The following primary antibodies were used: ENL (Cell Signaling Technology), GAS41 (Santa Cruz), GAPDH (Santa Cruz), β-actin (Sigma). Blots were detected using HRP-conjugated secondary antibodies.

ENL [2] = target: T1, ENL; assay: Western blot of ENL protein levels in MOLM13 cells; conditions: for ENL protein level after long treatment: 1 μM for 48 and 72 h
Procedure: MOLM13 cells were treated with LQ076-122 or LQ081-108 at 0, 0.25, 0.5, 1, 1.5, 2, 2.5, 3, 4 and 8 μM for 24 h.
MOLM13 cells were treated with DMSO or 8 μM of LQ076-122 for 12, 16, 20, 24 and 36 h.
MV4; 11, MOLM13 and Jurkat cells were treated with LQ108-69, LQ108-71, LQ108-72, LQ126-62 and LQ126-63 at 0, 1 nM, 10 nM, 100 nM, 1 μM, and 10 μM doses for 6 h. DMSO was used as negative control.
as §1, §2

ENL [3] = target: T1, ENL; assay: Western blot of ENL protein levels in Jurkat cells; conditions: for ENL protein level after long treatment: 1 μM for 48 and 72 h
Description: […] DMSO was used as negative control.
as §2

[4] = tested on: ENL-dependent MV4; 11 cells; assay: Cell viability (CellTiter-Glo), MV4; 11 cells; conditions: 11 cells, 1.25, 2.5, 5 and 10 μM for 72 h
Procedure: MV4; 11 (FIG. 13A), MOLM13 (FIG. 13B) and Jurkat (FIG. 13C) cells were seeded at 2×10^5 cells/mL density and treated with DMSO or indicated compounds 0.5, 1, 2 and 4 μM for 72 h. Cell viability was measured using CellTiter-Glo reagent (Promega) and relative cell viability was calculated by normalization to DMSO samples.
(§3) ENL-dependent MV4; 11 cells were seeded at 2×10^5 cells/mL density and treated with DMSO or the indicated compounds at 0, 1.25, 2.5, 5 and 10 μM for 72 h. Cell viability was measured using CellTiter-Glo reagent (Promega) and relative cell viability was calculated by normalization to DMSO samples.
as §3, with “11 and ENL-independent Jurkat” for “11”, “or” for “or the”, “10 nM, 100 nM, 1 μM” for “0, 1.25, 2.5, 5”, “3 days (A) or 6 days (B).” for “72 h.”
MV4; 11 or MOLM13 cells were seeded at 0.2×10^6 cells/mL density. Cells were treated with DMSO or ENL degraders at indicated concentrations. Each treatment was done in triplicates. After 72 h treatment, 100 μL of cell suspension from each treatment was mixed with 25 μL of CellTiter-Glo reagent (Promega) and incubated for 10 min before the luminescence signals were detected on a plate reader.

SMILES: Cn1ncc2cc(C(=O)Nc3ccc4[nH]c(CN5CCC(CCNC(=O)CCCCCCNc6cccc7c6C(=O)N(C6CCC(=O)NC6=O)C7=O)C5)nc4c3)ccc21 (stereo not shown) [LQ076-98, N-(2-((3-(2-(7-((2-(2,6-dioxopiperidin-3-yl)-1,3-dioxoisoindolin-4-yl)amino)heptanamido)ethyl)pyrrolidin-1-yl)methyl)-1H-benzo[d]imidazol-5-yl)-1-methyl-1H-indazole-5-carboxamide]
reduction of ENL protein levels (ENL [1]; 10 μM, 24 h): effective in reducing ENL protein levels

SMILES: Cn1ncc2cc(C(=O)Nc3ccc4[nH]c(CN5CCC(CCNC(=O)CCCCCCCNc6cccc7c6C(=O)N(C6CCC(=O)NC6=O)C7=O)C5)nc4c3)ccc21 (stereo not shown) [LQ076-99, N-(2-((3-(2-(8-((2-(2,6-dioxopiperidin-3-yl)-1,3-dioxoisoindolin-4-yl)amino)octanamido)ethyl)pyrrolidin-1-yl)methyl)-1H-benzo[d]imidazol-5-yl)-1-methyl-1H-indazole-5-carboxamide]
reduction of ENL protein levels (ENL [1]; 10 μM, 24 h): effective in reducing ENL protein levels

SMILES: Cc1ncsc1-c1ccc(CNC(=O)[C@@H]2C[C@@H](O)CN2C(=O)[C@@H](NC(=O)CCCCCCCCNC(=O)c2ccc(C(=O)Nc3ccc4[nH]c(CN5CCC[C@@H]5C)nc4c3)cc2)C(C)(C)C)cc1 [LQ076-120, N^1-(9-(((S)-1-((2S,4R)-4-hydroxy-2-((4-(4-methylthiazol-5-y)benzyl)carbamoyl)pyrrolidin-1-yl)-3,3-dimethyl-1-oxobutan-2-yl)amino)-9-oxononyl)-N^4-(2-(((S)-2-methylpyrrolidin-1-yl)methyl)-1H-benzo[d]imidazol-5-yl)terephthalamide]
reduction of ENL protein levels (ENL [1]; 10 μM, 24 h): effective in reducing ENL protein levels

SMILES: Cc1ncsc1-c1ccc(CNC(=O)[C@@H]2C[C@@H](O)CN2C(=O)[C@@H](NC(=O)CCCCCCCCCNC(=O)c2ccc(C(=O)Nc3ccc4[nH]c(CN5CCC[C@@H]5C)nc4c3)cc2)C(C)(C)C)cc1 [LQ076-121, N^1-(10-(((S)-1-((2S,4R)-4-hydroxy-2-((4-(4-methylthiazol-5-yl)benzyl)carbamoyl)pyrrolidin-1-yl)-3,3-dimethyl-1-oxobutan-2-yl)amino)-10-oxodecyl)-N^4-(2-(((S)-2-methylpyrrolidin-1-yl)methyl)-1H-benzo[d]imidazol-5-yl)terephthalamide]
reduction of ENL protein levels (ENL [1]; 10 μM, 24 h): effective in reducing ENL protein levels

More lines, main results first:

reduction of ENL protein levels (ENL [1]; 10 μM, 24 h): effective in reducing ENL protein levels
SMILES: C[C@H]1CCCN1Cc1nc2cc(NC(=O)c3ccc(C(=O)NCCCCCCCCNc4cccc5c4C(=O)N(C4CCC(=O)NC4=O)C5=O)cc3)ccc2[nH]1 (stereo partly drawn) [LQ076-134, N^1-(8-((2-(2,6-dioxopiperidin-3-yl)-1,3-dioxoisoindolin-4-yl)amino)octyl)-N^4-(2-(((S)-2-methylpyrrolidin-1-yl)methyl)-1H-benzo[d]imidazol-5-yl)terephthalamide]

effect of proteasome inhibitor MG132 on the ENL degradation induced by the degrader (ENL [1]): partially blocks the ENL degradation
SMILES: Cc1ncsc1-c1ccc(CNC(=O)[C@@H]2C[C@@H](O)CN2C(=O)[C@@H](NC(=O)C2(F)CC2)C(C)(C)C)c(OCC(=O)NCCCCCCCNC(=O)c2ccc3c(c2)[C@H](NC(=O)c2cc(-c4ccc(C(=O)N(C)C)c(O)c4)on2)CC3)c1 [LQ108-63, 5-(4-(dimethylcarbamoyl)-3-hydroxyphenyl)-N-((R)-6-((7-(2-(2-(((2S,4R)-1-((S)-2-(1-fluorocyclopropane-1-carboxamido)-3,3-dimethylbutanoyl)-4-hydroxypyrrolidine-2-carboxamido)methyl)-5-(4-methylthiazol-5-yl)phenoxy)acetamido)heptyl)carbamoyl)-2,3-dihydro-1H-inden-1-yl)isoxazole-3-carboxamide]

effect of proteasome inhibitor MG132 on the ENL degradation induced by the degrader (ENL [1]): partially blocks the ENL degradation
ENL protein level after long treatment (ENL [1]): maintained the ENL protein at low levels
ENL protein level after long treatment (ENL [2]): maintained the ENL protein at low levels
ENL protein level after long treatment (ENL [3]): maintained the ENL protein at low levels
SMILES: Cc1ncsc1-c1ccc([C@H](CC(=O)NCCCCCCNC(=O)c2ccc3c(c2)[C@H](NC(=O)c2cc(-c4ccc(C(=O)N(C)C)c(O)c4)on2)CC3)NC(=O)[C@@H]2C[C@@H](O)CN2C(=O)[C@@H](NC(=O)C2(F)CC2)C(C)(C)C)cc1 [LQ108-69, 5-(4-(dimethylcarbamoyl)-3-hydroxyphenyl)-N—((R)-6-((6-((S)-3-((2S,4R)-1-((S)-2-(1-fluorocyclopropane-1-carboxamido)-3,3-dimethylbutanoyl)-4-hydroxypyrrolidine-2-carboxamido)-3-(4-(4-methylthiazol-5-yl)phenyl)propanamido)hexyl)carbamoyl)-2,3-dihydro-1H-inden-1-yl)isoxazole-3-carboxamide]
reduction of ENL protein levels (ENL [1]; 1 nM to 10 μM for 6 h): reduced ENL protein levels in a concentration-dependent manner
reduction of ENL protein levels (ENL [2]; 1 nM to 10 μM for 6 h): reduced ENL protein levels in a concentration-dependent manner
reduction of ENL protein levels (ENL [3]; 1 nM to 10 μM for 6 h): reduced ENL protein levels in a concentration-dependent manner
suppression of cell growth (relative cell viability) [4]: significantly suppressed MV4; 11 cell growth at low micromolar concentration

effect of proteasome inhibitor MG132 on the ENL degradation induced by the degrader (ENL [1]): partially blocks the ENL degradation
ENL protein level after long treatment (ENL [1]): maintained the ENL protein at low levels
ENL protein level after long treatment (ENL [2]): maintained the ENL protein at low levels
ENL protein level after long treatment (ENL [3]): maintained the ENL protein at low levels
SMILES: Cc1ncsc1-c1ccc([C@H](CC(=O)NCCCCCCCNC(=O)c2ccc3c(c2)[C@H](NC(=O)c2cc(-c4ccc(C(=O)N(C)C)c(O)c4)on2)CC3)NC(=O)[C@@H]2C[C@@H](O)CN2C(=O)[C@@H](NC(=O)C2(F)CC2)C(C)(C)C)cc1 [LQ108-70, 5-(4-(dimethylcarbamoyl)-3-hydroxyphenyl)-N—((R)-6-((7-((S)-3-((2S,4R)-1-((S)-2-(1-fluorocyclopropane-1-carboxamido)-3,3-dimethylbutanoyl)-4-hydroxypyrrolidine-2-carboxamido)-3-(4-(4-methylthiazol-5-yl)phenyl)propanamido)heptyl)carbamoyl)-2,3-dihydro-1H-inden-1-yl)isoxazole-3-carboxamide]
suppression of cell growth (relative cell viability) [4]: significantly suppressed MV4; 11 cell growth at low micromolar concentration
